This note sets out measurements from patent US10285961B2, “Organic acids as agents to dissolve calcium minerals in pathological calcification and uses thereof” (University of Houston System, priority 2014, dated 2019).

Data set [1] is described as follows: Upper limit of metastability of urine from patients with kidney stones. On the set-up: species or system human. Particulars: for inhibition: calcium oxalate molar product at the point of crystallization: 8 urine samples, 37° C. for 4 hours. The procedure:
The crystal inhibition activity of hydroxycitrate in human urine was determined using measurement of upper limit of metastability. For this experiment, 8 urine samples from patients with kidney stones were used. The urine was either spiked with a known amount of an inhibitor or spiked with saline as control. Ten aliquots of each urine sample were added to the wells of a microtiter plate and increasing amounts of oxalate was added. The plates were incubated at 37° C. for 4 hours and then turbidity was measured using an enzyme-linked immunosorbent assay (ELISA) plate reader. The well with the lowest amount of oxalate in which increased turbidity is noted is considered the crystallization point. Multiplying the calcium concentration of the urine and the oxalate concentration (original oxalate plus the amount of oxalate added) at the point of crystallization provides a rough measure of saturation at the point of crystallization.
The upper limit of metastability assay was also used to compare the inhibitory activity of hydroxycitrate to that of other tricarboxyllic acids: citrate, isocitrate, and tricarballylate. […] Each of tricarboxyllic acids was added to urine samples from stone forming patients to provide a final concentration of 2 mM. The data are expressed as the increase of the calcium oxalate molar product at crystallization compared to the control urine sample without any inhibitor added.

Data set [2] is described as follows: In situ AFM of growth hillocks on the (010) face of COM crystals (step velocity). As to the method:
(§1) Atomic force microscopy (AFM, Bruker Multimode 4) was used to study the COM crystal surface topography at a nanometer length scale. Samples were mounted on a disk covered with a thin layer of thermally curable epoxy (MasterBond EP21AOLV). The epoxy was partially cured in an oven for ca. 20 min at 60° C. prior to transferring the crystals obtained from bulk crystallization. The crystals were immobilized on the epoxy with the or [010] direction oriented normal to the specimen surface by placing the sample in an oven at 60° C. for two to three hours to completely cure the epoxy. The cantilevers used in this study were silicon nitride probes with gold reflex coating and a spring constant of 0.15 N/m (Olympus, TR800PSA). AFM was also employed to observe the kinetics of crystal growth in supersaturated calcium oxalate solutions by monitoring the velocity of step advancement on the (010) surface and (100) surface of COM crystals in real time. The experiment was designed to assess the effects of a range of concentration of hydroxycitrate on step growth using a fluid cell (Bruker, MTFML) to produce an environment that mimics in situ crystallization. The fluid cell had two ports for inlet and outlet flow to maintain constant supersaturation during AFM measurements. A silicon O-ring was used to ensure no liquid leakage would occur while solutions were being continuously replenished. A dual syringe pump (CHEMYX, Fusion 200) was used to flow the solutions into the fluid cell.
Hydroxycitrate has four stereoisomers, […], (2S,3R), (2S,3S), and (2R,3R) (FIG. 1). In order to investigate the interaction between hydroxycitrate and COM crystal surface at a molecular level, atomic force microscopy was utilized. The growth of hillocks by screw dislocation on the (010) face of COM crystals were measured in real time in the absence and in the presence of 0.1 μg/mL HCA (FIGS. 2A-2F). Growth hillocks on (010) face are bounded by {021} and {12-1} faces. […] The temporal advancement of steps (i.e., step velocity) of the growth hillock in the absence and in the presence of a wide range of concentration of HCA was measured (FIGS. 3A-3B). […] These phenomena are conventional modes of crystal growth inhibition. […] This phenomenon confirms the role of HCA as a dissolving agent.

The nature of data set [3]: In situ AFM of growth hillocks on the (100) surface of COM crystals. As to the method:
as §1, with “The experiment was designed to assess the effects of a range of concentration of hydroxycitrate on step growth using a fluid cell (Bruker, MTFML) to produce an environment that mimics in situ crystallization. The fluid cell had two ports for inlet and outlet flow to maintain constant supersaturation during AFM measurements. A silicon O-ring was used to ensure no liquid leakage would occur while solutions were being continuously replenished. A dual syringe pump (CHEMYX, Fusion 200) was used to flow the solutions into the fluid cell.” left out
The interaction between hydroxycitrate and the (100) surface of COM crystals was also observed using atomic force microscopy. The growth of hillocks by screw dislocation on the (100) surface of COM crystals were measured in real time in the absence and in the presence of 0.25 μg/mL HCA (FIGS. 4A-4F). […]

A short description of data set [4]: Exposure of fully grown COM crystals to HCA: optical microscopy and AFM surface roughness. The conditions noted are these: HCA (100 μg/mL) introduced at the end of crystallization period (3 days); optical micrographs. As to the method:
Crystallization was carried out in a 20-mL glass vial by dissolving NaCl in deionized water then adding 0.7 mL of 10 mM CaCl2 stock solution which was prepared in advance. The sample vial was place in an oven set to 60° C. for one hour to ensure the crystallization was performed at 60° C. Subsequently 0.7 mL of […] Na2C2O4 stock solution was added to the solution dropwise while the solution was stirred at 400 rpm. To investigate the effect of hydroxycitrate […] COM crystallization, prepared hydroxycitrate stock solution was added to the solution dropwise at the end of three day crystallization period. A clean glass slide (ca. 1.3×1.3 cm^2) was placed at the bottom of the glass vial to readily collect the crystals prior to placing the vial in the oven. Final solution composition was set to be 0.7 mM CaCl2: 0.7 mM Na2C2O4: 150 mM NaCl and the amount of deionized water was adjusted to set the final volume to 10 mL. Crystallization was performed at 60° C. for three days without agitation. The glass slide was removed from the solution and dried at room temperature prior to analysis.
Morphology of COM crystals prepared in the absence and in the presence of OGMs were assessed and compared under optical microscope (Leica DM2500-M). Images were obtained in brightfield using reflectance. […]

On the set-up of data set [5]: species or system human. The conditions noted are these: in vivo. As to the method:
In order for hydroxycitrate to have a direct effect on calcium oxalate stone formation, it must be excreted in the urine. As preliminary evidence of renal excretion in humans, over the counter hydroxycitrate supplements (trade name Super CitraMax) was administered to a normal healthy subject at a dose of 4.3 mmoles of hydroxycitrate two times a day (total daily dose of 8.6 mmoles) for three days. The standard dose recommended by the manufacturer is 12.9 mmoles per day. On the third day a 24 hour urine collection was performed. Hydroxycitrate excretion was measured using ion chromatography. […] Peak 1 is urine citrate, peak 2 is hydroxycitrate. Using a standard curve created using a high purity hydroxycitrate standard, hydroxycitrate excretion was calculated to be 1.28 mmoles per day. Thus, approximately 15% of the oral hydroxycitrate dose was excreted in the urine.

A short description of data set [6]: Calcium ion selective electrode (ISE) measurement of COM crystallization kinetics. The conditions noted are these: synthetic versus extracted hydroxycitrate, slope of free calcium ion depletion relative to control. As to the method:
A calcium ion selective electrode (ISE, ThermoScientific with Orion 9720BNWP Ionplus® electrode) was used to measure the effect of organic growth modifiers (OGMs) on the kinetics of COM crystallization which measures the concentration of free calcium ions in solution. Samples were prepared in the similar manner as COM bulk crystallization. Final solution composition was set to be 0.5 mM CaCl2: 0.5 mM Na2C2O4: 150 mM NaCl and the measurements were performed at room temperature. During ISE measurements, the stir rate was adjusted to 1200 rpm to minimize the induction time for nucleation. OGM efficacy was measured by calculating the temporal depletion of calcium ion concentration (ppm range). The data was normalized by subtracting the concentration of the initial time point from each time point. The rate of depletion was calculated by measuring the initial slope of the crystal growth curve. The efficacy of synthetic and extracted hydroxycitrate was assessed using the percent inhibition, which was calculated by comparing the reduced slopes for each OGM relative to that of the control (i.e., absence of OGM). Prior to ISE measurements, the electrode was calibrated using a standard calcium solution (0.1 M, Orion Ion Plus), which was diluted with deionized water to three concentrations: 10^−4, 10^−3 and 10^−2 M. The ionic strength of each solution was adjusted using a standard solution (ISA, Thermo Scientific), which was added in a 1:50 volume ratio of ISA-to-standard.
Additionally, the inhibitory efficacy of synthetic and extracted HCA was observed. An ion selective electrode measures the free calcium ion in the solution in the course of experiments. The efficacy of both HCA molecules was measured by calculating the temporal depletion of free calcium ion concentration in COM growth solutions. The data was normalized by subtracting the concentration of the initial time point from all time points. The rate of depletion was calculated by measuring the initial slope of the crystal growth curve. The efficacy of the synthetic and extracted HCA was assessed using the percent inhibition, which was calculated by comparing the slopes for each molecule relative to that of the control (i.e., in the absence of HCA).

The mark [7] stands for this setting: 2 mM final concentration, comparison of tricarboxylic acids.

Entries after “also recorded” stand apart in the source; their conditions may differ.

For the compound `O=C(O)CC(CC(=O)O)C(=O)O` [tricarballylate, reference compound], the “difference of inhibition versus hydroxycitrate” value in data set [1] (setting [7]) is “reached statistical significance”.

On to `O=C(O)CC(O)(C(=O)O)C(O)C(=O)O` (stereo not shown) [HCA, hydroxycitrate], for which the results for the “surface features of COM crystal” value in data set [2] (0.1 μg/mL HCA), in data set [3] (0.1 μg/mL HCA as printed) and in data set [3] (0.25 μg/mL HCA) were “signs of dissolution; also recorded: dissolves the COM crystal surface”, “dissolves the COM crystal surface” and “etch pits start to form at step edges; also recorded: rapid formation of etch pits at the edge of steps”, respectively. Further, the “step velocity of growth hillocks” value in data set [2] (<021> and <12-1> directions, low concentration of HCA (<0.06 μg/mL)) is “decrease; also recorded: slightly decreases”; in data set [2] (high concentration of HCA (>0.15 μg/mL)), “nearly zero; also recorded: ceases to zero”; in data set [2] (intermediate concentration (0.06 μg/mL<CHCA<0.15 μg/mL)) it was “negative velocity; also recorded: negative values”. In addition, the overall crystal morphology result in data set [4] is on record as “remained the same as that of the control; also recorded: maintained the same overall morphology”. For the same compound, the “fraction of the oral hydroxycitrate dose excreted in the urine” value in data set [5] is listed as “approximately 15%”. For the same compound, the figures for the “inhibition: calcium oxalate molar product at the point of crystallization” value in data set [1] (1 mM final concentration) and in data set [1] (2 mM final concentration) were “greater inhibition than the control urine” and “greater inhibition than the 1 mM hydroxycitrate”, respectively. In data set [1] (setting [7]), the “increase of the calcium oxalate molar product at crystallization compared to the control urine” value was “higher levels of inhibition compared to the other inhibitors”.

With “(−)-Hydroxycitric acid calcium salt [extracted HCA]”, the “efficacy (percent inhibition) on COM crystallization” value is recorded as “comparable” in data set [6] (calcium salt) and “comparable effect” in data set [6] (listed as cHCA, calcium salt).

For the compound `O.O=C([O-])CC(O)(C(=O)[O-])C(O)C(=O)[O-].[K+].[K+].[K+]` (stereo not shown) [synthetic HCA, potassium hydroxycitrate tribasic monohydrate], the “efficacy (percent inhibition) on COM crystallization” value is on record as “comparable effect” in data set [6] (listed as sHCA, monohydrate) and “comparable” in data set [6] (monohydrate).
